Patent US7763617B2, “Pyrazolopyridine-4-yl pyridazinone derivatives and addition salts thereof, and PDE inhibitors comprising the same derivatives or salts as active ingredient” (Kyorin Pharmaceutical Co., Ltd., priority 2005, dated 2010)
pIC50: −log10 of the molar value.

How the values were obtained:
[1] = target: T1, PDE3A catalytic domain (PDE3Acat) (Homo sapiens, UniProt Q14432); assay: Inhibition of phosphodiesterase activity, [3H]-cAMP hydrolysis, recombinant PDE3Acat; type: biochemical; conditions: human recombinant PDE3Acat, cAMP 2 μmol/L; read-out: IC50(μmol/L) PDE3
T1 construct: cDNA fragments of PDE3A catalytic domain (indicated as “cat,” hereinafter); made in house; host or cells: Sf9 insect cells (baculovirus, Bac-to-Bac)
T1 sequence (Q14432 674-1093 limits assumed): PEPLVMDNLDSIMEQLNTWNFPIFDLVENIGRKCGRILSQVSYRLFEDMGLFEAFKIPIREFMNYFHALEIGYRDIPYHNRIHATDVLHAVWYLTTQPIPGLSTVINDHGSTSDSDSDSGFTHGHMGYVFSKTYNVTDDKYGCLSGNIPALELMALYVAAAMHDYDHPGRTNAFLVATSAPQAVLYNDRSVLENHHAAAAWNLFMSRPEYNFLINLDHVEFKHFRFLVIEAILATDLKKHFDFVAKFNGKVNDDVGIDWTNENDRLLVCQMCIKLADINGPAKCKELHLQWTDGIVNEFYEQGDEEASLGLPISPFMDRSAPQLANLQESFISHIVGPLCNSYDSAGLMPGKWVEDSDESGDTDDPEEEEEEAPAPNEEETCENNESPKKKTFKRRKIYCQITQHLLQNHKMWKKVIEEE
Description: (§1) RT-PCR was performed to isolate cDNA fragments of PDE3A catalytic domain (indicated as “cat,” hereinafter), PDE4Bcat, PDE5Acat and PDE10A1 from human RNA. Using Gateway system (Invitrogen) and Bac-to-Bac (registered trademark) Baculovirus Expression system (Invitrogen), the isolated cDNA fragments were transfected into Sf9 insect cells for expression of the PDE proteins. The recombinant PDE3Acat, PDE4Bcat, PDE5Acat and PDE10A1 proteins were isolated from culture supernatant or cell extracts of Sf9 cells expressed high levels of these proteins by ion-exchange chromatography and used for the following experiments.
(§2) 4 mmol/L solution of each test compound was serially diluted 4-fold with 15% DMSO solution to prepare the solutions with concentrations of 15 nmol/L to 4 mmol/L (final concentrations=1.5 nmol/L-400 μmol/L). 10 μL of each test compound solution was added to each well of 96 plate with 10 μL of [^3H]-cAMP or [^3H]-cGMP solution, diluted with a buffer (40 mmol/L Tris-HCl (pH 7.4), 10 mmol/L MgCl2) to the concentration shown in Table 20 and 40 μL of each of the human recombinant PDE proteins in units shown in Table 20. The plate was incubated at 30° C. for 20 min, and then at 65° C. for 2 min. Subsequently, 25 μL of 1 mg/mL 5′-nucleotidase (Crotalus atrox venom, Sigma) was added to each well and the plate was incubated at 30° C. for 10 min. 200 μL of Dowex solution (300 mg/mL Dowex 1×8-400 (Sigma Aldrich), 33% ethanol) was then added to each well and the plate was shaken at 4° C. for 20 min. Subsequently, 200 μL of MicroScint 20 (Packard) was added to each well and the radioactivity of each sample was measured by a scintillation counter (Topcount, Packard) IC50 was calculated by GraphPad Prism v3.03 (GraphPad Software).

PDE4Bcat = target: T2, PDE4Bcat (Homo sapiens, UniProt Q07343); assay: Inhibition of phosphodiesterase activity, [3H]-cAMP hydrolysis, recombinant PDE4Bcat; type: biochemical; conditions: cAMP 2 μmol/L, read-out: IC50(μmol/L) PDE4
T2 construct: catalytic domain (indicated as “cat,” hereinafter), PDE4Bcat; made in house; host or cells: Sf9 insect cells (baculovirus, Bac-to-Bac)
T2 sequence (Q07343 330-659 limits assumed): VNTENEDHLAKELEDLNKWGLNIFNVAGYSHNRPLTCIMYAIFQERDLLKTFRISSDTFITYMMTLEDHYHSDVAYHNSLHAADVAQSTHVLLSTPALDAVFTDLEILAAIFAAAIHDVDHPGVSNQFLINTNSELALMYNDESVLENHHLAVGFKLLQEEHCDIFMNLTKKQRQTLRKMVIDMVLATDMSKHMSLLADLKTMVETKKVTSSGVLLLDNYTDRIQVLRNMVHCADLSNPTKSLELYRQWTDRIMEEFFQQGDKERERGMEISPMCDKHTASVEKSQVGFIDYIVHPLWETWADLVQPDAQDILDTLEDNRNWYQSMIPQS
Description: as §1, §2

[2] = tested on: histamine-induced bronchoconstriction; assay: Histamine-induced bronchoconstriction in guinea pigs; type: in vivo, guinea pig; conditions: Cavia porcellus, iv, 0.5 min, 30 seconds after administration, histamine 12.5 μg/kg i.v.; for inhibition in vivo at 1 mg/kg: test compound 1 mg/kg i.v.; for inhibition in vivo at 0.1 mg/kg: values in brackets: test compound 0.1 mg/kg, i.v.
Description: Guinea pigs were anesthetized with pentobarbital (30 mg/kg, i.p.). A cannula for IV administeration, a cannula for collecting blood and measurement of blood pressure and a trachea cannula were inserted into the left exterior jugular vein, right interior carotid artery and trachea, respectively. The animals were placed under artificial respiration at 60 times/min and 10 mL/kg/stroke. The airflow through the branch of the tracheal cannula was measured by a bronchospasm transducer (Ugo-Basile) and recorded on a computer via Power Lab (ADInstruments Japan). The animals were immobilized with gallamine (10 mg/kg, i.v.), then administered histamine at 10-minute intervals (12.5 μg/kg, i.v.). […] To examine the inhibitory activity of test compound, the histamine-induced bronchoconstriction was measured after 30 seconds of drug administration. The bronchoconstriction was recorded as the change of the airflow: The results were shown by percentages of the maximum histamine-induced bronchoconstriction. Each test compound was prepared as a 10 mg/mL solution in DMSO. Gallamine was prepared as a 10 mg/mL solution in physiological saline. Histamine was prepared as a 1 mg/mL solution in physiological saline, which was diluted with physiological saline to 62.5 μg/mL for use.

Structure (SMILES)	pIC50 [1]	pIC50 (PDE4Bcat)	inhibition in vivo at 1 mg/kg [2] [%]	inhibition in vivo at 0.1 mg/kg [2] [%]
CCc1nn2cc(Cl)cc(C3=NNC(=O)CC3C)c2c1Cl (stereo not drawn) [Example 203]	< 5.00	6.00 to 7.00	70 to 80	
CCOC(=O)c1ccc(C2=NNC(=O)CC2C)c2cc(CC)nn12 (stereo not drawn) [Example 204]	5.00 to 6.00	5.00 to 6.00		
COc1ccc(C2=NNC(=O)CC2)c2cc(C(F)(F)F)nn12 [Example 209, 6-(7-methoxy-2-trifluoromethyl-pyrazolo[1,5-a]pyridine-4-yl)-4,5-dihydro-3-(2H)-pyridazinone]	< 5.00	6.00 to 7.00		80 to 90
CCC1CC(=O)NN=C1c1ccc(OC)n2nc(C(F)(F)F)cc12 (stereo not drawn) [Example 212]	< 5.00	> 6.00		
CCc1nn2c(OC)ccc(C3=NNC(=O)CC3C)c2c1Cl (stereo not drawn) [Example 213]	< 5.00	6.00 to 7.00	70 to 80	
COc1ccc(C2=NNC(=O)CC2C)c2ccnn12 (stereo not drawn) [Example 214]	> 6.00	5.00 to 6.00		80 to 90
COc1ccc(C2=NNC(=O)CC2C)c2cc(C)nn12 (stereo not drawn) [Example 215]	5.00 to 6.00	6.00 to 7.00		80 to 90
CCCc1cc2c(C3=NNC(=O)CC3C)ccc(OC)n2n1 (stereo not drawn) [Example 217]	5.00 to 6.00	6.00 to 7.00		≥ 90
COc1ccc(C2=NNC(=O)CC2C)c2cc(C3CC3)nn12 (stereo not drawn) [Example 218]	5.00 to 6.00	6.00 to 7.00		≥ 90
COc1ccc(C2=NNC(=O)CC2C)c2cc(SC)nn12 (stereo not drawn) [Example 219]		6.00 to 7.00		≥ 90
COCc1cc2c(C3=NNC(=O)CC3C)ccc(OC)n2n1 (stereo not drawn) [Example 220]	5.00 to 6.00	6.00 to 7.00		≥ 90
COc1ccc(C2=NNC(=O)CC2C)c2cc(CO)nn12 (stereo not drawn) [Example 221]	5.00 to 6.00	5.00 to 6.00		
COc1ccc(C2=NNC(=O)CC2C)c2cc(C(F)F)nn12 (stereo not drawn) [Example 222]	5.00 to 6.00	> 6.00		70 to 80
CCc1cc2c(C3=NNC(=O)CC3C)ccc(SC)n2n1 (stereo not drawn) [Example 223]	5.00 to 6.00	6.00 to 7.00		≥ 90
CCc1cc2c(C3=NNC(=O)CC3C)ccc(N(C)C)n2n1 (stereo not drawn) [Example 224]	5.00 to 6.00	6.00 to 7.00		
CCc1cc2c(C3=NNC(=O)CC3C)ccc(NC)n2n1 (stereo not drawn) [Example 225]	5.00 to 6.00	> 6.00		80 to 90
CCc1cc2c(C3=NNC(=O)CC3C)ccc(N3CCOCC3)n2n1 (stereo not drawn) [Example 226]	5.00 to 6.00	< 5.00		
CCc1cc2c(C3=NNC(=O)CC3C)ccc(NC(C)=O)n2n1 (stereo not drawn) [Example 228]	5.00 to 6.00	< 5.00		
CCc1cc2c(C3=NNC(=O)CC3C)ccc(-c3ccccc3)n2n1 (stereo not drawn) [Example 229]	5.00 to 6.00	5.00 to 6.00		

Structure (SMILES)	pIC50 [1]	pIC50 (PDE4Bcat)	inhibition in vivo at 1 mg/kg [2] [%]	inhibition in vivo at 0.1 mg/kg [2] [%]
CCc1cc2c(C3=NNC(=O)CC3C)ccc(C(C)=O)n2n1 (stereo not drawn) [Example 235, 6-(7-acetyl-2-ethyl-pyrazolo[1,5-a]pyridine-4-yl)-4,5-dihydro-5-methyl-3-(2H)-pyridazinone]				≥ 90
COc1ccc(C2=NNC(=O)CC2C)c2cc(CF)nn12 (stereo not drawn) [Example 236, 6-(2-fluoromethyl-7-methoxy-pyrazolo[1,5-a]pyridine-4-yl)-4,5-dihydro-5-methyl-3-(2H)-pyridazinone]	5.00 to 6.00	6.00 to 7.00		
COc1ccc(C2=NNC(=O)CC2C)c2cc(C(C)O)nn12 (stereo not drawn) [Example 238, 6-[2-(1-hydroxyethyl)-7-methoxy-pyrazolo[1,5-a]pyridine-4-yl]-4,5-dihydro-5-methyl-3-(2H)-pyridazinone]	5.00 to 6.00	> 6.00		
C=Cc1cc2c(C3=NNC(=O)CC3C)ccc(OC)n2n1 (stereo not drawn) [Example 239, 6-(7-methoxy-2-vinyl-pyrazolo[1,5-a]pyridine-4-yl)-4,5-dihydro-5-methyl-3-(2H)-pyridazinone]				≥ 90
COc1ccc(C2=NNC(=O)CC2C)c2cc(C(C)F)nn12 (stereo not drawn) [Example 240, 6-[2-(1-fluoroethyl)-7-methoxy-pyrazolo[1,5-a]pyridine-4-yl]-4,5-dihydro-5-methyl-3-(2H)-pyridazinone]	5.00 to 6.00	> 6.00		≥ 90
COc1ccc(C2=NNC(=O)CC2C)c2cc(C(C)=O)nn12 (stereo not drawn) [Example 241, 6-(2-acetyl-7-methoxy-pyrazolo[1,5-a]pyridine-4-yl)-4,5-dihydro-5-methyl-3-(2H)-pyridazinone]	5.00 to 6.00	> 6.00		≥ 90
CCOc1ccc(C2=NNC(=O)CC2C)c2cc(CC)nn12 (stereo not drawn) [Example 244, 6-(7-ethoxy-2-ethyl-pyrazolo[1,5-a]pyridine-4-yl)-4,5-dihydro-5-methyl-3-(2H)-pyridazinone]	5.00 to 6.00	5.00 to 6.00		
CCc1cc2c(C3=NNC(=O)CC3C)ccc(OC(C)C)n2n1 (stereo not drawn) [Example 245, 6-(7-isopropoxy-2-ethyl-pyrazolo[1,5-a]pyridine-4-yl)-4,5-dihydro-5-methyl-3-(2H)-pyridazinone]	5.00 to 6.00	< 5.00		≥ 90
CCc1cc2c(C3=NNC(=O)CC3C)ccc(NCCO)n2n1 (stereo not drawn) [Example 247, 6-[2-ethyl-7-(2-hydroxyethylamino)-pyrazolo[1,5-a]pyridine-4-yl]-4,5-dihydro-5-methyl-3-(2H)-pyridazinone]	5.00 to 6.00	5.00 to 6.00		70 to 80
CCc1cc2c(C3=NNC(=O)CC3C)ccc([S+](C)[O-])n2n1 (stereo not drawn) [Example 249, 6-(2-ethyl-7-methylsulfinyl-pyrazolo[1,5-a]pyridine-4-yl)-4,5-dihydro-5-methyl-3-(2H)-pyridazinone]	5.00 to 6.00	> 6.00		≥ 90
CCc1cc2c(C3=NNC(=O)CC3C)ccc(S(C)(=O)=O)n2n1 (stereo not drawn) [Example 251, 6-(2-ethyl-7-methylsulfonyl-pyrazolo[1,5-a]pyridine-4-yl)-4,5-dihydro-5-methyl-3-(2H)-pyridazinone]	5.00 to 6.00	5.00 to 6.00		
CCc1nn2c(S(C)(=O)=O)ccc(C3=NNC(=O)CC3C)c2c1O (stereo not drawn) [Example 252]	5.00 to 6.00	5.00 to 6.00		
COc1ccc(-c2ccc(=O)n(Cc3ccccn3)n2)c2cc(C(C)C)nn12 [Example 274]	< 5.00	6.00 to 7.00		
COc1ccc(-c2ccc(=O)n(Cc3ccncc3)n2)c2cc(C(C)C)nn12 [Example 275]	< 5.00	5.00 to 6.00		
COc1ccc(-c2n[nH]c(=O)cc2C)c2c(F)c(C(C)C)nn12 [Example 279, 6-(3-fluoro-7-methoxy-2-isopropyl-pyrazolo[1,5-a]pyridine-4-yl)-5-methyl-3-(2H)-pyridazinone]	< 5.00	6.00 to 7.00		
CCc1cc2c(C3=NN(Cc4cccnc4)C(=O)CC3C)cc(F)cn2n1 (stereo not drawn) [Example 287, 6-(2-ethyl-6-fluoro-pyrazolo[1,5-a]pyridine-4-yl)-4,5-dihydro-5-methyl-2-(pyridine-3-ylmethyl)-3-(2H)-pyridazinone]	< 5.00	5.00 to 6.00		
COc1ccc(-c2nn(C)c(=O)cc2C)c2cc(C(C)C)nn12 [Example 297]	< 5.00	> 6.00		
COc1ccc(-c2cc(C)c(=O)n(Cc3cccnc3)n2)c2cc(C(C)C)nn12 [Example 299]	< 5.00	> 6.00		
COc1ccc(-c2n[nH]c(=O)cc2C)c2cc(C(F)(F)F)nn12 [Example 303]	< 5.00	5.00 to 6.00		
